Reference: publication PMC6736568, “Discovery of Novel Anti-cryptosporidial Activities From Natural Products by in vitro High-Throughput Phenotypic Screening” (Frontiers in Microbiology, 2019)
Where two headings read alike, the source gives them in different places.

Columns and labels:
[1] = test system: Cryptosporidium parvum; experiment: qRT-PCR assay of the growth of C. parvum in vitro in HCT-8 host cells (primary and secondary screening, EC50); type: cell-based; conditions: for Inhibition (%): primary screening at 10 uM; for % Inhibition (3.3 uM): secondary screening at 3.3 uM
[2] = test system: HCT-8 host cells (Hs18S)
[3] = primary screening at 10 uM, from Hs18S ΔCT
[4] = primary screening at 10 uM, treated vs control

## CC1=CC2C(C(C)C)CCC(C)(O)C2CC1 (centres unmarked) [CADIN-4-EN-10-OL]
[1]
  Inhibition (%): -28.21%
[2]; [3]
  Cytotoxicity (%): -34.1%
[2]; [4]
  Hs18S ΔCT: -0.42

## LYSINE (L) HYDROCHLORIDE
[1]
  Inhibition (%): -22.55%
[2]; [3]
  Cytotoxicity (%): -11.0%
[2]; [4]
  Hs18S ΔCT: -0.15

## CC1=CC(=O)[C@H]2C(C)(C)CCC[C@]2(C)[C@@]1(O)CCc1ccoc1 [SOLIDAGENONE]
[1]
  Inhibition (%): -14.64%
[2]; [3]
  Cytotoxicity (%): 39.6%
[2]; [4]
  Hs18S ΔCT: 0.73

## CC(C)(O)[C@@H]1CC[C@](C)([C@H]2[C@@H](O)C[C@@]3(C)[C@@H]4C[C@H](O[C@@H]5O[C@H](CO)[C@@H](O)[C@H](O)[C@H]5O)[C@H]5C(C)(C)[C@@H](O[C@@H]6OC[C@@H](O)[C@H](O)[C@H]6O)CC[C@@]56C[C@@]46CC[C@]23C)O1 [ASTRAGALOSIDE IV]
[1]
  Inhibition (%): -18.98%
[2]; [3]
  Cytotoxicity (%): -14.1%
[2]; [4]
  Hs18S ΔCT: -0.19

## CC(=O)[C@H]1CC[C@H]2[C@@H]3CCC4C[C@H](O)CC[C@]4(C)[C@H]3C[C@H](O)[C@]12C (stereo partly drawn) [DIHYDROXY (3alpha,12alpha)PREGNAN-20-ONE]
[1]
  Inhibition (%): -32.59%
[2]; [3]
  Cytotoxicity (%): -29.0%
[2]; [4]
  Hs18S ΔCT: -0.37

## SPIRAMYCIN
[1]
  Inhibition (%): -12.26%
[2]; 10 µM
  Cytotoxicity (%): -12.2%

## CC(=O)O[C@@H]1CC2C(C)(CC[C@H](O)C2(C)C)C2CC[C@]3(C)C(=CC(=O)O[C@H]3c3ccoc3)C21C (stereo partly drawn) [3beta-HYDROXYDEOXODIHYDRODEOXYGEDUNIN]
[1]
  Inhibition (%): 77.26%
  % Inhibition (3.3 uM): -21%
[2]; [3]
  Cytotoxicity (%): -19.7%
[2]; [4]
  Hs18S ΔCT: -0.26

## O=C(O[C@@H]1Cc2c(O)cc(O)cc2O[C@@H]1c1ccc(O)c(O)c1)c1cc(O)c(O)c(O)c1 [EPICATECHIN MONOGALLATE]
[1]
  Inhibition (%): 6.24%
[2]; [3]
  Cytotoxicity (%): 23.1%
[2]; [4]
  Hs18S ΔCT: 0.38

## GARLICIN
[1]
  Inhibition (%): 4.93%
[2]; 10 µM
  Cytotoxicity (%): -30.8%

## COc1cc2c(cc1O)CCNC2C (centres unmarked) [SALSOLINE]
[1]
  Inhibition (%): -1.38%
[2]; [3]
  Cytotoxicity (%): -0.9%
[2]; [4]
  Hs18S ΔCT: -0.01

## COc1ccc(-c2coc3cc(O)cc(O)c3c2=O)cc1 [BIOCHANIN A]
[1]
  Inhibition (%): 14.14%
[2]; [3]
  Cytotoxicity (%): 6.9%
[2]; [4]
  Hs18S ΔCT: 0.10

## CC(=O)O[C@H]1CC[C@@]2(C)C(=CC=C3[C@@H]4CC[C@H]([C@H](C)/C=C/[C@H](C)C(C)C)[C@@]4(C)CC[C@@H]32)C1 [ERGOSTEROL ACETATE]
[1]
  Inhibition (%): -10.68%
[2]; [3]
  Cytotoxicity (%): 3.7%
[2]; [4]
  Hs18S ΔCT: 0.06

## CS(C)(=O)=O [DIMETHYLSULFONE]
[1]
  Inhibition (%): 65.78%
  % Inhibition (3.3 uM): 61%
[2]; [3]
  Cytotoxicity (%): 46.5%
[2]; [4]
  Hs18S ΔCT: 0.90

## CC(=O)O[C@H]1CC[C@]2(C)C3=C(CC[C@H]2C1(C)C)[C@]1(C)CC[C@H]([C@H](C)CCC=C(C)C)[C@@]1(C)CC3 [LANOSTEROL ACETATE]
[1]
  Inhibition (%): -3.78%
[2]; [3]
  Cytotoxicity (%): -2.8%
[2]; [4]
  Hs18S ΔCT: -0.04

## OC[C@@H](O)C(O)[C@H](O)CO [ARABITOL]
[1]
  Inhibition (%): 8.73%
[2]; [3]
  Cytotoxicity (%): -2.6%
[2]; [4]
  Hs18S ΔCT: -0.04

## C[C@@H]1[C@H](O)[C@@H](C)/C=C/C=C/CC/C=C/C=C/C=C/C=C/C(O[C@H]2O[C@H](C)[C@@H](O)[C@H](N)[C@@H]2O)CC2O[C@](O)(CC(O)C(O)CCC(O)CC(O)CC(O)CC(=O)O[C@H]1C)CC(O)C2C(=O)O (some centres unmarked) [NYSTATIN]
[1]
  Inhibition (%): 34.97%
[2]; [3]
  Cytotoxicity (%): 51.7%
[2]; [4]
  Hs18S ΔCT: 1.05

## COc1ccc(-c2coc3cc(OC)ccc3c2=O)cc1 [7,4'-DIMETHOXYISOFLAVONE]
[1]
  Inhibition (%): 1.31%
[2]; [3]
  Cytotoxicity (%): 3.0%
[2]; [4]
  Hs18S ΔCT: 0.04

## C[C@@H]1C[C@H](O)[C@@]2(O)[C@]13CC(=O)OC[C@@]2(C)[C@@](C)(O)C(=O)C3 [PSEUDO-ANISATIN]
[1]
  Inhibition (%): -5.73%
[2]; [3]
  Cytotoxicity (%): 9.2%
[2]; [4]
  Hs18S ΔCT: 0.14

## COc1cc2oc3cc(OC)c(OC)c(CC=C(C)C)c3c(=O)c2c(OC)c1CC=C(C)C [MANGOSTIN TRIMETHYL ETHER]
[1]
  Inhibition (%): -8.08%
[2]
  Hs18S ΔCT: 0.00
[2]; 10 µM
  Cytotoxicity (%): -0.1

## O=c1ccn([C@@H]2O[C@H](COP(=O)([O-])OP(=O)([O-])OP(=O)([O-])O)[C@@H](O)[C@H]2O)c(=O)[nH]1.[Na+].[Na+].[Na+] [URIDINE TRIPHOSPHATE TRISODIUM]
[1]
  Inhibition (%): 91.48%
  % Inhibition (3.3 uM): 17%
[2]; [3]
  Cytotoxicity (%): 14.5%
[2]; [4]
  Hs18S ΔCT: 0.23

## COC(=O)[C@H]1[C@H]2C[C@H]3c4[nH]c5ccccc5c4CCN3C[C@@H]2CC[C@@H]1O [CORYNANTHINE]
[1]
  Inhibition (%): -58.95%
[2]; [3]
  Cytotoxicity (%): -53.1%
[2]; [4]
  Hs18S ΔCT: -0.61

## POMIFERIN TRIMETHYL ETHER
[1]
  Inhibition (%): -34.33%
[2]; [3]
  Cytotoxicity (%): 11.4%
[2]; [4]
  Hs18S ΔCT: 0.17

## BICUCULLINE(-) METHIODIDE
[1]
  Inhibition (%): -0.49%
[2]; [3]
  Cytotoxicity (%): -4.9%
[2]; [4]
  Hs18S ΔCT: -0.07

## AVOCADYNOFURAN
[1]
  Inhibition (%): -19.78%
[2]; [3]
  Cytotoxicity (%): 1.4%
[2]; [4]
  Hs18S ΔCT: 0.02

## Cl.NCCc1ccccc1 [PHENETHYLAMINE HYDROCHLORIDE]
[1]
  Inhibition (%): 39.04%
[2]; [3]
  Cytotoxicity (%): 87.4%
[2]; [4]
  Hs18S ΔCT: 2.99

## COc1ccc(-c2oc3cc(OC)c(OC)c(OC)c3c(=O)c2OC)cc1 [3,4',5,6,7-PENTAMETHOXYFLAVONE]
[1]
  Inhibition (%): -9.57%
[2]; [3]
  Cytotoxicity (%): 15.6%
[2]; [4]
  Hs18S ΔCT: 0.24

## C[C@@H]1CC[C@H]2[C@](C)(CO)[C@@H](O)CC[C@]2(C)[C@@]12CC[C@@](CO)(CCO)O2 [LAGOCHILIN]
[1]
  Inhibition (%): 9.20%
[2]; [3]
  Cytotoxicity (%): 34.1%
[2]; [4]
  Hs18S ΔCT: 0.60

## CC(C)=CCC/C(C)=C/CC/C(C)=C/CC/C(C)=C/CC/C(C)=C/CC/C(C)=C/CC/C(C)=C/CC/C(C)=C/CC/C(C)=C/CO [SOLANESOL]
[1]
  Inhibition (%): -25.87%
[2]; [3]
  Cytotoxicity (%): 10.5%
[2]; [4]
  Hs18S ΔCT: 0.16

## COLISTIN SULFATE
[1]
  Inhibition (%): 33.43%
[2]; [3]
  Cytotoxicity (%): 0.4%
[2]; [4]
  Hs18S ΔCT: 0.01

## O.O=c1ccc2cc(O[C@@H]3OC(CO)[C@@H](O)[C@@H](O)C3O)c(O)cc2o1 (some centres unmarked) [ESCULIN MONOHYDRATE]
[1]
  Inhibition (%): 10.62%
[2]; [3]
  Cytotoxicity (%): -34.0%
[2]; [4]
  Hs18S ΔCT: -0.42

## N[C@@H]1CONC1=O [CYCLOSERINE (D)]
[1]
  Inhibition (%): -10.45%
[2]; [3]
  Cytotoxicity (%): -30.0%
[2]; [4]
  Hs18S ΔCT: -0.38

## C[C@@H]1CC[C@@]2(OC1)O[C@H]1C[C@H]3[C@@H]4CC[C@H]5C[C@@H](O)CC[C@]5(C)C4=CC[C@]3(C)[C@H]1[C@@H]2C [3beta-HYDROXYISOALLOSPIROST-9(11)-ENE]
[1]
  Inhibition (%): 6.79%
[2]; [3]
  Cytotoxicity (%): -12.6%
[2]; [4]
  Hs18S ΔCT: -0.17

## C=C(C)[C@@H]1CC[C@]2(C)CC[C@]3(C)[C@H](CC[C@@H]4[C@@]5(C)CC[C@H](OC(C)=O)C(C)(C)[C@@H]5CC[C@]43C)[C@@H]12 [LUPEOL ACETATE]
[1]
  Inhibition (%): 25.85%
[2]; [3]
  Cytotoxicity (%): -12.1%
[2]; [4]
  Hs18S ΔCT: -0.17

## C[C@@]1(O)CCOC(=O)C1 [MEVALONIC ACID LACTONE]
[1]
  Inhibition (%): 26.69%
[2]; [3]
  Cytotoxicity (%): 16.5%
[2]; [4]
  Hs18S ΔCT: 0.26

## OMEGA-3-ACID ESTERS (EPA shown)
[1]
  Inhibition (%): 4.36%
[2]; 10 µM
  Cytotoxicity (%): -17.4%

## COc1ccc([C@@H]2CC(=O)c3c(O)cc(O[C@@H]4O[C@H](CO[C@@H]5O[C@@H](C)[C@H](O)[C@@H](O)[C@H]5O)[C@@H](O)[C@H](O)[C@H]4O)cc3O2)cc1O [HESPERIDIN]
[1]
  Inhibition (%): 66.25%
  % Inhibition (3.3 uM): 36%
[2]; [3]
  Cytotoxicity (%): 21.5%
[2]; [4]
  Hs18S ΔCT: 0.35

## CC(=O)OC1CCC2(C)C(CC(OC(C)=O)C3(C)C4=CC(=O)OC(c5ccoc5)C4(C)CCC23)C1(C)C (stereo not drawn) [3alpha-ACETOXYDIHYDRODEOXYGEDUNIN]
[1]
  % Inhibition (3.3 uM): 25%
[2]; [4]
  Hs18S ΔCT: -0.24

## CN(C)CC(=O)OC[C@@H](O)[C@@H](O)[C@H](O)[C@@H](O)C(=O)[O-].[Na+] [PANGAMIC ACID SODIUM]
[1]
  Inhibition (%): -4.04%
[2]; 10 µM
  Cytotoxicity (%): -61.0%

## O.O=C(O)[C@@H]1[C@H]2C[C@H]3c4[nH]c5ccccc5c4CCN3C[C@@H]2CC[C@@H]1O [YOHIMBIC ACID HYDRATE]
[1]
  Inhibition (%): -21.23%
[2]; [3]
  Cytotoxicity (%): -20.7%
[2]; [4]
  Hs18S ΔCT: -0.27
